Measured values: ChEMBL document CHEMBL4616599, “Molecular mechanism of C-phycocyanin induced apoptosis in LNCaP cells” (Bioorg Med Chem, 2020)
The source made the active and inactive calls. No cut-off for these calls is given here.

Columns and labels:
LNCaP [1] = test: Cytotoxicity against human LNCAP cells assessed as reduction in cell viability at 500 ug/mL after 24 hrs by trypan blue dye exclusion assay; format: functional, cell-based
LNCaP [2] = test: Cytotoxicity against human LNCAP cells assessed as reduction in cell viability at 500 ug/ml measured after 24 hrs in presence of topotecan by trypan blue dye exclusion test relative to control; format: functional
LNCaP [3] = test: Down regulation of BIRC5 gene expression in human LNCAP cells at 500 ug/ml measured after 24 hrs by RT profile PCR analysis relative to control; format: functional
LNCaP [4] = test: Down regulation of BCL2 gene expression in human LNCAP cells at 500 ug/ml measured after 24 hrs by RT profile PCR analysis relative to control; format: functional
LNCaP [5] = test: Induction of apoptosis in human LNCAP cells assessed as up regulation of p53 expression at 500 ug/ml measured after 24 hrs by immunoblot analysis; format: functional, cell-based
LNCaP [6] = test: Induction of apoptosis in human LNCAP cells assessed as up regulation of p21 expression at 500 ug/ml measured after 24 hrs by immunoblot analysis; format: functional, cell-based
LNCaP [7] = test: Induction of apoptosis in human LNCAP cells assessed as up regulation of pro-apoptotic protein Bax expression at 500 ug/ml measured after 24 hrs in presence of topotecan by Western blot analysis; format: functional, cell-based
LNCaP [8] = test: Induction of apoptosis in human LNCAP cells assessed as up regulation of pro-apoptotic protein Apaf-1 expression at 500 ug/ml measured after 24 hrs by Western blot analysis; format: functional, cell-based
LNCaP [9] = test: Induction of apoptosis in human LNCAP cells assessed as up regulation of cleaved caspase 3 expression at 500 ug/ml measured after 24 hrs by Western blot analysis; format: functional, cell-based
LNCaP [10] = test: Induction of apoptosis in human LNCAP cells assessed as down regulation of Mcl-1 expression at 500 ug/ml measured after 24 hrs by Western blot analysis; format: functional, cell-based
LNCaP [11] = test: Induction of apoptosis against human LNCAP cells assessed as down regulation of survivin expression at 500 ug/ml measured after 24 hrs by Western blot analysis; format: functional, cell-based
LNCaP [12] = test: Induction of apoptosis in 3 hrs FAS inhibitor KP7-6 treated human LNCAP cells assessed as increase in caspase 8 activity at 500 ug/ml measured after 24 hrs by Ac-IETD-pNA substrate based colorimetric assay; format: functional, cell-based
[13] = target: T1, Tumor necrosis factor receptor superfamily member 6 (Homo sapiens) (UniProt P25445); test: Activation of FAS receptor in human LNCAP cells assessed as increase in caspase 8 activity at 500 ug/ml measured after 24 hrs by Ac-IETD-pNA substrate based colorimetric assay; format: cell-based
T1 sequence (whole entry): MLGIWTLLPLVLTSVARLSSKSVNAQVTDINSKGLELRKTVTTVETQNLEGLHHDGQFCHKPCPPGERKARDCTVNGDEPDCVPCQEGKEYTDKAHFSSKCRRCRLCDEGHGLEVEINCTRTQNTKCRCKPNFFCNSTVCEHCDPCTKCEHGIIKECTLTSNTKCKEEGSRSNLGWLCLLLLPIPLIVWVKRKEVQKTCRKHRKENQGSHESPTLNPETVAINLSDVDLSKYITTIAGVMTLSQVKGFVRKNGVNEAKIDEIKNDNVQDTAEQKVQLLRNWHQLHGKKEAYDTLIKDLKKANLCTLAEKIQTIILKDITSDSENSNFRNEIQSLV

LNCaP [14] = test: Induction of apoptosis in human LNCAP cells assessed as increase in cleaved PARP expression at 500 ug/ml measured after 24 hrs by western blot analysis; format: functional, cell-based
LNCaP [15] = test: Induction of apoptosis in human LNCAP cells assessed as increase in cleaved PARP expression at 500 ug/ml measured after 24 hrs in presence of topotecan by Western blot analysis; format: functional, cell-based
LNCaP [16] = test: Induction of apoptosis in human LNCAP cells assessed as increase in FAS expression at 500 ug/ml measured after 24 hrs by Western blot analysis; format: functional, cell-based
LNCaP [17] = test: Induction of DNA fragmentation in human LNCAP cells at 500 ug/ml measured after 24 hrs by agarose gel electrophoresis; format: functional, cell-based
[18] = Drug uptake in cytoplasm of human LNCAP cells at 250 to 500 ug/mL incubated for 12 hrs followed by single compound washout by fluorescence microscopic analysis; format: ADME, subcellular
[19] = Drug uptake in plasma membrane of human LNCAP cells at 250 to 500 ug/mL incubated for 12 hrs followed by single washout by fluorescence microscopic analysis; format: ADME, cell membranes
[20] = Drug uptake in cytoplasm of human LNCAP cells at 250 to 500 ug/ml incubated for 12 hrs followed by 3 times washout by fluorescence microscopic analysis; format: ADME, subcellular
LNCaP [21] = test: Down regulation of IGF1R gene expression in human LNCAP cells at 500 ug/ml measured after 24 hrs by RT profile PCR analysis relative to control; format: functional
LNCaP [22] = test: Down regulation of AKT1 gene expression in human LNCAP cells at 500 ug/ml measured after 24 hrs by RT profile PCR analysis relative to control; format: functional
LNCaP [23] = test: Up regulation of GADD45A gene expression in human LNCAP cells at 500 ug/ml measured after 24 hrs by RT profile PCR analysis relative to control; format: functional
LNCaP [24] = test: Up regulation of FAS gene expression in human LNCAP cells at 500 ug/ml measured after 24 hrs by RT profile PCR analysis relative to control; format: functional
LNCaP [25] = test: Up regulation of BAX gene expression in human LNCAP cells at 500 ug/ml measured after 24 hrs by RT profile PCR analysis relative to control; format: functional
LNCaP [26] = test: Up regulation of TNFRSF1OB gene expression in human LNCAP cells at 500 ug/ml measured after 24 hrs by RT profile PCR analysis relative to control; format: functional
LNCaP [27] = test: Up regulation of TNFRSF10A gene expression in human LNCAP cells at 500 ug/ml measured after 24 hrs by RT profile PCR analysis relative to control; format: functional
LNCaP [28] = test: Up regulation of TP73 gene expression in human LNCAP cells at 500 ug/ml measured after 24 hrs by RT profile PCR analysis relative to control; format: functional
LNCaP [29] = test: Up regulation of BAG1 gene expression in human LNCAP cells at 500 ug/ml measured after 24 hrs by RT profile PCR analysis relative to control; format: functional
LNCaP [30] = test: Up regulation of TNFRSF1B gene expression in human LNCAP cells at 500 ug/ml measured after 24 hrs by RT profile PCR analysis relative to control; format: functional
LNCaP [31] = test: Up regulation of CASP8 gene expression in human LNCAP cells at 500 ug/ml measured after 24 hrs by RT profile PCR analysis relative to control; format: functional
LNCaP [32] = test: Induction of DNA fragmentation in human LNCAP cells at 500 ug/ml measured after 24 hrs in presence of topotecan by agarose gel electrophoresis; format: functional, cell-based
LNCaP [33] = test: Induction of apoptosis in human LNCAP cells assessed as up regulation of p53 expression at 500 ug/ml measured after 24 hrs in presence of topotecan by immunoblot analysis; format: functional, cell-based
LNCaP [34] = test: Induction of apoptosis in human LNCAP cells assessed as up regulation of p21 expression at 500 ug/ml measured after 24 hrs in presence of topotecan by immunoblot analysis; format: functional, cell-based
LNCaP [35] = test: Induction of apoptosis in human LNCAP cells assessed as down regulation of Bcl2 expression at 500 ug/ml measured after 24 hrs by Western blot analysis; format: functional, cell-based
LNCaP [36] = test: Induction of apoptosis in human LNCAP cells assessed as down regulation of Mcl-1 expression at 500 ug/ml measured after 24 hrs in presence of topotecan by Western blot analysis; format: functional, cell-based
LNCaP [37] = test: Induction of apoptosis in human LNCAP cells assessed as down regulation of survivin expression at 500 ug/ml measured after 24 hrs in presence of topotecan by Western blot analysis; format: functional, cell-based
LNCaP [38] = test: Induction of apoptosis in human LNCAP cells assessed as down regulation of Bcl2 expression at 500 ug/ml measured after 24 hrs in presence of topotecan by Western blot analysis; format: functional, cell-based
LNCaP [39] = test: Induction of apoptosis in human LNCAP cells assessed as up regulation of pro-apoptotic protein Apaf-1 expression at 500 ug/ml measured after 24 hrs in presence of topotecan by Western blot analysis; format: functional, cell-based
LNCaP [40] = test: Induction of apoptosis in human LNCAP cells assessed as up regulation of cleaved caspase 3 expression at 500 ug/ml measured after 24 hrs in presence of topotecan by Western blot analysis; format: functional, cell-based
LNCaP [41] = test: Induction of apoptosis in human LNCAP cells assessed as increase in caspase 3 activity at 500 ug/ml measured after 24 hrs by Ac-DEVD-pNA substrate based colorimetric assay; format: functional, cell-based
LNCaP [42] = test: Induction of apoptosis in human LNCAP cells assessed as increase in caspase 9 activity at 500 ug/ml measured after 24 hrs by Ac-LEHD-pNA substrate based colorimetric assay; format: functional, cell-based
LNCaP [43] = test: Induction of apoptosis in human LNCAP cells assessed as increase in caspase 3 activity at 500 ug/ml measured after 24 hrs in presence of topotecan by Ac-DEVD-pNA substrate based colorimetric assay; format: functional, cell-based
LNCaP [44] = test: Induction of apoptosis in human LNCAP cells assessed as increase in caspase 9 activity at 500 ug/ml measured after 24 hrs in presence of topotecan by Ac-LEHD-pNA substrate based colorimetric assay; format: functional, cell-based
[45] = target: T1, Tumor necrosis factor receptor superfamily member 6 (Homo sapiens); test: Activation of FAS receptor in human LNCAP cells assessed as increase in caspase 8 activity at 500 ug/ml measured after 24 hrs in presence of topotecan by Ac-IETD-pNA substrate based colorimetric assay; format: cell-based
LNCaP [46] = test: Induction of apoptosis in human LNCAP cells assessed as decrease in uncleaved PARP expression at 500 ug/ml measured after 24 hrs by Western blot analysis; format: functional, cell-based
LNCaP [47] = test: Induction of apoptosis in human LNCAP cells assessed as decrease in uncleaved PARP expression at 500 ug/ml measured after 24 hrs in presence of topotecan by Western blot analysis; format: functional, cell-based
LNCaP [48] = test: Induction of apoptosis in human LNCAP cells assessed as increase in FAS expression at 500 ug/ml measured after 24 hrs in presence of topotecan by Western blot analysis; format: functional, cell-based
[49] = Drug uptake in plasma membrane of human LNCAP cells at 250 to 500 ug/ml incubated for 12 hrs followed by 3 times washout by fluorescence microscopic analysis; format: ADME, cell membranes
LNCaP [50] = test: Induction of apoptosis in human LNCAP cells assessed as Bax/Bcl2 ratio at 500 ug/ml measured after 24 hrs by Western blot analysis; format: functional
LNCaP [51] = test: Induction of apoptosis in human LNCAP cells assessed as Bax/Bcl2 ratio at 500 ug/ml measured after 24 hrs in presence of topotecan by Western blot analysis; format: functional

Drug uptake [18]: Not Active | Drug uptake [19]: Active | Drug uptake [20]: Not Active | Drug uptake [49]: Active
Structure (SMILES): C/C=C1/C(=C\c2[nH]c(/C=C3N=C(/C=C4/NC(=O)C(CC)=C4C)C(C)=C/3CCC(=O)O)c(CCC(=O)O)c2C)NC(=O)C1C (stereo unspecified)
Activity (LNCaP [1]): Active | Activity (LNCaP [2]): >65% | fold change (FC) (LNCaP [3]): 0.009 | fold change (FC) (LNCaP [4]): 0.45 | Activity (LNCaP [5]): Active | Activity (LNCaP [6]): Active | Activity (LNCaP [7]): Active | Activity (LNCaP [8]): Active | Activity (LNCaP [9]): Active | Activity (LNCaP [10]): Active | Activity (LNCaP [11]): Active | Activity (LNCaP [12]): inactive | Activity [13]: Active | Activity (LNCaP [14]): Active | Activity (LNCaP [15]): Active | Activity (LNCaP [16]): Active | Activity (LNCaP [17]): Active | fold change (FC) (LNCaP [21]): 0.47 | fold change (FC) (LNCaP [22]): 0.56 | fold change (FC) (LNCaP [23]): 6.01 | fold change (FC) (LNCaP [24]): 5.34 | fold change (FC) (LNCaP [25]): 3.84 | fold change (FC) (LNCaP [26]): 2.72 | fold change (FC) (LNCaP [27]): 2.33 | fold change (FC) (LNCaP [28]): 2.23 | fold change (FC) (LNCaP [29]): 1.76 | fold change (FC) (LNCaP [30]): 1.67 | fold change (FC) (LNCaP [31]): 1.2 | Activity (LNCaP [32]): Active | Activity (LNCaP [33]): Active | Activity (LNCaP [34]): Active | Activity (LNCaP [35]): Active | Activity (LNCaP [36]): Active | Activity (LNCaP [37]): Active | Activity (LNCaP [38]): Active | Activity (LNCaP [39]): Active | Activity (LNCaP [40]): Active | Activity (LNCaP [41]): Active | Activity (LNCaP [42]): Active | Activity (LNCaP [43]): Active | Activity (LNCaP [44]): Active | Activity [45]: Active | Activity (LNCaP [46]): Active | Activity (LNCaP [47]): Active | Activity (LNCaP [48]): Active | Ratio (LNCaP [50]): >1.5 | Ratio (LNCaP [51]): >3.5
